The values below come from US20210170026A1, “ANTICANCER AGENT, RADIOSENSITIZER, AND FOOD COMPOSITION” (KRACIE PHARMA, LTD., priority 2016, published 2021).

For data set [1] the following is noted: cited from earlier work.
The test system of data set [2] is human pancreatic cancer cells, MiaPaCa-2 cells. The experiment in a line: Test Example 2: order of arctigenin treatment and radiation therapy in mice transplanted with MiaPaCa-2 cells. It is filed as in vivo, BALB/cAJc1-nu/nu mice. The procedure: In order to evaluate whether the order of the burdock fruit extract treatment and the radiation therapy would affect the antitumor effects, arctigenin treatment was conducted for two weeks either before or after conducting radiation therapy. To BALB/cAJc1-nu/nu mice (CLEA Japan, Inc.), 1×10^6 human pancreatic cancer cells, MiaPaCa-2 cells were subcutaneously transplanted. On day 14 after the transplantation, the mice to which the cells were transplanted were divided into (a) untreated group, (b) arctigenin treatment group, (c) radiation therapy group and (d) arctigenin treatment-radiation therapy-combination group. The (b) arctigenin treatment group was further divided into a group in which two-week arctigenin treatment was started 14 days after the transplantation and a group in which two-week arctigenin treatment was started four weeks after the transplantation. […] When the dose of arctigenin was calculated assuming that the daily intake of the feed of the mice was 3 to 5 g, the dose was 1.5 to 2.5 mg/individual/day. […] After the two-week arctigenin treatment after the radiation therapy, the tumor sizes and the tumor weights of the groups were measured. In addition, the tumors were collected and pathologically analyzed.

The test system is the same in data set [3]. As to the kind of experiment: Test Example 1: antitumor effects of arctigenin treatment and radiation therapy in mice transplanted with MiaPaCa-2 cells. It is filed as in vivo, BALB/cAJc1-nu/nu mice. The procedure: The antitumor effects of arctigenin treatment and radiation therapy were evaluated. To BALB/cAJc1-nu/nu mice (CLEA Japan, Inc.), 1×10^6 human pancreatic cancer cells, MiaPaCa-2 cells were subcutaneously transplanted. On day 14 after the transplantation, the mice to which the cells were transplanted were divided into four groups of (a) untreated group, (b) arctigenin treatment group, (c) radiation therapy group and (d) arctigenin treatment-radiation therapy-combination group. The arctigenin treatment group and the combination group were treated with arctigenin for two weeks. The arctigenin treatment was conducted by giving feed containing 0.5% (w/w) of the burdock fruit extract of Example 1 to the mice. When the dose of arctigenin was calculated assuming that the daily intake of the feed of the mice was 3 to 5 g, the dose was 1.5 to 2.5 mg/individual/day. After two weeks of the arctigenin treatment, radiation was applied to the tumors of the radiation therapy group and the combination group using an x-ray irradiator (Faxitron X-ray (model: CP160)) under the setting conditions of 160 kV and 6.3 mA at a dose of 20 Gy/fraction through a copper plate filter. Then, the arctigenin administration group and the combination group were treated with arctigenin for two weeks. After the arctigenin treatment, the tumor sizes and the tumor weights of the groups were measured. In addition, the tumors were collected and pathologically analyzed.

The mark [4] stands for this setting: combination of arctigenin treatment and radiation therapy (20 Gy/fraction), two weeks after the radiation therapy, vs untreated group.

Regarding `COc1cc(C[C@H]2C(=O)OC[C@@H]2Cc2ccc(OC)c(OC)c2)ccc1O` [arctigenin], the solubility in water entry in data set [1] is recorded as “insoluble”. Besides, the “hypoxic state in the tumor” value in data set [2] (arctigenin treatment before the radiation therapy, IVIS, FIG. 12) was “improved”. In addition, the average tumor size entry in data set [2] (two-week arctigenin treatment before radiation therapy (AG-Con, RT(+)) vs arctigenin treatment after radiation therapy (Con-AG, RT(+)), FIG. 11) is on record as “shrank significantly”. In addition, the “intratumoral hypoxic region (photon counts/tumor volume) using IVIS” value in data set [3] (after the arctigenin treatment (before radiation therapy), vs untreated group, FIG. 3, FIG. 4) was “significantly smaller”. Further, in data set [3] (after two weeks of first arctigenin treatment (before radiation therapy), vs untreated group, feed containing 0.5% (w/w) burdock fruit extract of Example 1, arctigenin 1.5 to 2.5 mg/individual/day, FIG. 2), the average tumor size result is listed as “significantly smaller”. Also, the tumor size entry in data set [3] (arctigenin treatment alone, after end of treatment (two weeks after the radiation therapy), vs untreated group) is recorded as “a tendency towards a smaller tumor size”. In addition, in data set [3] (setting [4]), the tumor sizes entry is recorded as “significantly smaller” and the tumor weights entry is recorded as “significantly smaller”. Also, the “tumors (size)” value in data set [3] (combination of arctigenin treatment and radiation therapy, vs radiation therapy alone) is listed as “significantly small”.
